From the NIST ThermoML archive (doi:10.1016/j.jct.2014.06.004)
Numbers after ± are expanded uncertainties.

What was measured:
[1] = refractive index (Na D-line) (dimensionless); xn = mol fraction of the nth substance listed; conditions: 100 kPa, Liquid, Standard Abbe refractometry
[2] = xn = mol fraction of the nth substance listed; conditions: 100 kPa, Liquid; for speed of sound: Frequency=3 MHz, Sing-around technique in a fixed-path interferometer; for mass density: Vibrating tube method

CCCCCCC(=O)O [heptanoic acid] + CCCC(=O)O
Conditions | mass density, [2] [kg/m3] | refractive index, [1] | speed of sound, [2] [m/s]
293.15 K, x1 = 0.0559 | 954.2 ± 0.3 | 1.4005 ± 0.0005 | 1203 ± 2
293.15 K, x1 = 0.1059 | 951.3 ± 0.3 | 1.4024 ± 0.0005 | 1209 ± 2
293.15 K, x1 = 0.2061 | 945.8 ± 0.3 | 1.4054 ± 0.0005 | 1222 ± 2
293.15 K, x1 = 0.3087 | 940.8 ± 0.3 | 1.4084 ± 0.0005 | 1233 ± 2
293.15 K, x1 = 0.4037 | 936.7 ± 0.3 | 1.4109 ± 0.0005 | 1244 ± 2
293.15 K, x1 = 0.5037 | 932.7 ± 0.3 | 1.4134 ± 0.0005 | 1254 ± 2
293.15 K, x1 = 0.6006 | 929.2 ± 0.3 | 1.4157 ± 0.0005 | 1263 ± 2
293.15 K, x1 = 0.7049 | 925.8 ± 0.3 | 1.4179 ± 0.0005 | 1272 ± 2
293.15 K, x1 = 0.805 | 922.8 ± 0.3 | 1.4199 ± 0.0005 | 1280 ± 2
293.15 K, x1 = 0.9052 | 920.1 ± 0.3 | 1.4217 ± 0.0005 | 1289 ± 2
293.15 K, x1 = 0.9575 | 918.7 ± 0.3 | 1.4226 ± 0.0005 | 1292 ± 2
293.15 K, x1 = 1 | 917.7 ± 0.3 | 1.4234 ± 0.0005 | 1295 ± 2
298.15 K, x1 = 0.0559 | 949.3 ± 0.3 | 1.3984 ± 0.0005 | 1185 ± 2
298.15 K, x1 = 0.1059 | 946.4 ± 0.3 | 1.4001 ± 0.0005 | 1191 ± 2
298.15 K, x1 = 0.2061 | 941 ± 0.3 | 1.4033 ± 0.0005 | 1203 ± 2
298.15 K, x1 = 0.3087 | 936.2 ± 0.3 | 1.4063 ± 0.0005 | 1215 ± 2
298.15 K, x1 = 0.4037 | 932.1 ± 0.3 | 1.4089 ± 0.0005 | 1225 ± 2
298.15 K, x1 = 0.5037 | 928.2 ± 0.3 | 1.4114 ± 0.0005 | 1236 ± 2
298.15 K, x1 = 0.6006 | 924.8 ± 0.3 | 1.4136 ± 0.0005 | 1245 ± 2
298.15 K, x1 = 0.7049 | 921.5 ± 0.3 | 1.4159 ± 0.0005 | 1254 ± 2
298.15 K, x1 = 0.805 | 918.5 ± 0.3 | 1.4179 ± 0.0005 | 1263 ± 2
298.15 K, x1 = 0.9052 | 915.9 ± 0.3 | 1.4197 ± 0.0005 | 1271 ± 2
298.15 K, x1 = 0.9575 | 914.5 ± 0.3 | 1.4207 ± 0.0005 | 1275 ± 2
298.15 K, x1 = 1 | 913.5 ± 0.3 | 1.4214 ± 0.0005 | 1278 ± 2
303.15 K, x1 = 0.0559 | 944.4 ± 0.3 | 1.3963 ± 0.0005 | 1166 ± 2
303.15 K, x1 = 0.1059 | 941.6 ± 0.3 | 1.398 ± 0.0005 | 1172 ± 2
303.15 K, x1 = 0.2061 | 936.3 ± 0.3 | 1.4012 ± 0.0005 | 1185 ± 2
303.15 K, x1 = 0.3087 | 931.5 ± 0.3 | 1.4042 ± 0.0005 | 1197 ± 2
303.15 K, x1 = 0.4037 | 927.6 ± 0.3 | 1.4068 ± 0.0005 | 1207 ± 2
303.15 K, x1 = 0.5037 | 923.8 ± 0.3 | 1.4093 ± 0.0005 | 1217 ± 2
303.15 K, x1 = 0.6006 | 920.4 ± 0.3 | 1.4116 ± 0.0005 | 1227 ± 2
303.15 K, x1 = 0.7049 | 917.1 ± 0.3 | 1.4138 ± 0.0005 | 1236 ± 2
303.15 K, x1 = 0.805 | 914.2 ± 0.3 | 1.4158 ± 0.0005 | 1245 ± 2
303.15 K, x1 = 0.9052 | 911.6 ± 0.3 | 1.4177 ± 0.0005 | 1253 ± 2
303.15 K, x1 = 0.9575 | 910.3 ± 0.3 | 1.4186 ± 0.0005 | 1257 ± 2
303.15 K, x1 = 1 | 909.3 ± 0.3 | 1.4194 ± 0.0005 | 1260 ± 2
308.15 K, x1 = 0.0559 | 939.5 ± 0.3 | 1.3942 ± 0.0005 | 1147 ± 2
308.15 K, x1 = 0.1059 | 936.7 ± 0.3 | 1.3958 ± 0.0005 | 1154 ± 2
308.15 K, x1 = 0.2061 | 931.5 ± 0.3 | 1.3991 ± 0.0005 | 1167 ± 2
308.15 K, x1 = 0.3087 | 926.9 ± 0.3 | 1.4021 ± 0.0005 | 1179 ± 2
308.15 K, x1 = 0.4037 | 923 ± 0.3 | 1.4047 ± 0.0005 | 1189 ± 2
308.15 K, x1 = 0.5037 | 919.3 ± 0.3 | 1.4072 ± 0.0005 | 1199 ± 2
308.15 K, x1 = 0.6006 | 916 ± 0.3 | 1.4095 ± 0.0005 | 1209 ± 2
308.15 K, x1 = 0.7049 | 912.8 ± 0.3 | 1.4117 ± 0.0005 | 1218 ± 2
308.15 K, x1 = 0.805 | 910 ± 0.3 | 1.4138 ± 0.0005 | 1227 ± 2
308.15 K, x1 = 0.9052 | 907.4 ± 0.3 | 1.4157 ± 0.0005 | 1235 ± 2
308.15 K, x1 = 0.9575 | 906.1 ± 0.3 | 1.4166 ± 0.0005 | 1239 ± 2
308.15 K, x1 = 1 | 905.1 ± 0.3 | 1.4173 ± 0.0005 | 1242 ± 2
313.15 K, x1 = 0.0559 | 934.6 ± 0.3 | 1.392 ± 0.0005 | 1129 ± 2
313.15 K, x1 = 0.1059 | 931.9 ± 0.3 | 1.3937 ± 0.0005 | 1136 ± 2
313.15 K, x1 = 0.2061 | 926.8 ± 0.3 | 1.397 ± 0.0005 | 1148 ± 2
313.15 K, x1 = 0.3087 | 922.3 ± 0.3 | 1.4 ± 0.0005 | 1161 ± 2
313.15 K, x1 = 0.4037 | 918.5 ± 0.3 | 1.4026 ± 0.0005 | 1171 ± 2
313.15 K, x1 = 0.5037 | 914.8 ± 0.3 | 1.4051 ± 0.0005 | 1182 ± 2
313.15 K, x1 = 0.6006 | 911.6 ± 0.3 | 1.4074 ± 0.0005 | 1191 ± 2
313.15 K, x1 = 0.7049 | 908.4 ± 0.3 | 1.4097 ± 0.0005 | 1201 ± 2
313.15 K, x1 = 0.805 | 905.7 ± 0.3 | 1.4117 ± 0.0005 | 1209 ± 2
313.15 K, x1 = 0.9052 | 903.1 ± 0.3 | 1.4136 ± 0.0005 | 1218 ± 2
313.15 K, x1 = 0.9575 | 901.9 ± 0.3 | 1.4146 ± 0.0005 | 1222 ± 2
313.15 K, x1 = 1 | 900.9 ± 0.3 | 1.4153 ± 0.0005 | 1225 ± 2
